Data as given in paper PMC8480273, “Design, synthesis, and biological evaluation of symmetrical azine derivatives as novel tyrosinase inhibitors” (BMC Chemistry, 2021).
Where two headings read alike, the source gives them in different places.

How the values were obtained:
[1] = MTT assay for cell viability, A375; type: cell-based; conditions: human, A375 melanoma cells, A375, 10 µM, ± SD
Method: The A375 cell line is derived from a human skin melanoma carrying two mutant genes, B-RAF and CDKN2 which are associated with melanoma of sun-damaged skin [48]. To determine the cytotoxicity of 3f in A375 melanoma cell lines, MTT studies were conducted.
(§1) The cytotoxic activity of compound was evaluated in B16F10 cells using 3-(4,5-dimethylthiazol-2-yl)-2,5-diphenyltetrazolium bromide (MTT) assay. Cells were seeded in a 96-well plate (5 × 10^3 cells/well) and incubated at 37 °C with samples at different concentrations for 48 h. Following the treatment, cells were incubated with MTT (0.5 mg mL^−1) at 37 °C for 3 h. The MTT-containing medium was then removed, and 100 μL of DMSO was added to each well, mixed thoroughly with a 10 min shake to dissolve formazan crystals. The absorbance of each well was measured at 540 nm.

[2] = system: B16F10 melanoma cells; test: Melanin content assay; type: cell-based; conditions: B16F10, 10 µM, in comparison with the control
Method: B16F10 cells were seeded in six-well plates (1.0 × 10^5 cells/well). After 24 h, the medium was substituted by a fresh one and treated with 3f, and incubated for 48 h. Then, cells were treated with 100 nM α -MSH. […] After incubation cells were washed twice with PBS and harvested using […] trypsin, then dissolved in 300 μL of 1 N NaOH/10% DMSO buffer and boiled for 2 h at 80 °C to solubilize the melanin. The absorbance of the supernatant was measured at 470 nm in a microplate reader. The obtained results were normalized using total protein content.

[3] = MTT assay for cell viability, B16F10; type: cell-based; conditions: mouse, B16F10 melanoma cells, B16F10, 10 µM, ± SD
Method: as §1

[4] = target: T1, mushroom tyrosinase (Agaricus bisporus, UniProt C7FF04); test: Determination of the inhibition type (Lineweaver–Burk kinetics); type: biochemical; conditions: Lineweaver–Burk plot, L-DOPA substrate
T1 construct: purchased Sigma Chemical Co. (St. Louis, MO, USA)
T1 sequence (C7FF04 1-392): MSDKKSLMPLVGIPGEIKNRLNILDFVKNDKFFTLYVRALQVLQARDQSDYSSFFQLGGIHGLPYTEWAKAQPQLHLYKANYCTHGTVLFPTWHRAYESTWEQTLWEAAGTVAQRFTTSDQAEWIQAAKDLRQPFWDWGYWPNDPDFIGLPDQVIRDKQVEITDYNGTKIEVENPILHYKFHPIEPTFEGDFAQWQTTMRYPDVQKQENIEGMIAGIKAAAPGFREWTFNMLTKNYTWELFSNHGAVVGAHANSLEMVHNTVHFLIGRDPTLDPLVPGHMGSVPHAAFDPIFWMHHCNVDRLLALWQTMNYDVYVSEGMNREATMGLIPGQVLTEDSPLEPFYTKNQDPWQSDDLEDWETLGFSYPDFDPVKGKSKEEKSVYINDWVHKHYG
Method: A series of experiments were performed to determine the inhibition kinetics of 3f. The inhibitor concentrations were: 0, 8, 16 μM. Substrate (L-DOPA) concentrations were (0.1, 0.25, 0.5, 0.75 and 1.5 mM) in kinetic studies. Pre-incubation and measurement time was the same as discussed in the mushroom tyrosinase inhibition assay protocol. Maximum initial velocity was determined from the initial linear portion of absorbance up to 10 min after addition of L-DOPA with 1 min interval. The Michaelis constant (Km) and the maximal velocity (Vmax) of the tyrosinase activity were determined by the Lineweaver–Burk plot at various concentrations of L-DOPA as a substrate. The inhibition type of the enzyme was assayed by Lineweaver–Burk plots of the inverse of velocities (1/V) versus the inverse of substrate concentrations 1/[S] mM^−1.

[5] = target: tyrosinase; conditions: cited from earlier work

For `Oc1ccc(C=NN=Cc2ccc(O)cc2O)c(O)c1` [Compound 3f, 4,4′-(Hydrazine-1,2-diylidenebis(methaneylylidene))bis(benzene-1,3-diol)], the viability at 48 h, 10 µM [1] was > 82%, the “Melanin content (%)” value [2] was 79.58% and the viability at 48 h, 10 µM [3] was 60.1 ± 9.82%. For the same compound, the “Vmax and Km values in the presence of increasing concentrations of compound” value [4] was “decreased” and the type of inhibition ([4]; inhibitor 0, 8, 16 μM) was “uncompetitive”.
In the case of `CCOc1cc(/C=N/NC(=O)c2ccc(O)cc2)ccc1O` [D], the IC50 ([5]; hydrazine-containing compound) is listed as 9.9 µM.
For `O=C1c2c(O)cc(O)cc2O[C@H](c2ccc(O)cc2O)[C@H]1O` [Dihydromorin], the IC50 ([5]; Fig. 1, flavanol) is given as 10.3 µM.
For `CCOc1cc(/C=N/NC(=O)c2ccc(O)c(OC)c2)ccc1O` [E], the IC50 ([5]; hydrazine-containing compound) is listed as 1.58 µM.
In the case of `NC(=S)N/N=C/c1ccc([N+](=O)[O-])cc1` [F], the IC50 ([5]; hydrazine-containing compound) is listed as 0.05 µM.
In the case of `O=c1cc(-c2ccc(O)c(O)c2)oc2cc(O)cc(O)c12` [Luteolin], the IC50 ([5]; Fig. 1, flavone) is listed as 60 µM.
In the case of `O=c1c(O)c(-c2ccc(O)c(O)c2)oc2cc(O)cc(O)c12` [Quercetin], the Ki ([5]; Fig. 1, flavonol) is given as 29 µM.
In the case of `Oc1ccc(/C=C/c2cc(O)cc(O)c2)cc1` [Resveratrol, 3,5,4′-trihydroxy-trans-stilbene], the IC50 ([5]; Fig. 1, stilbenoid) is listed as 1 to 9 µM and the IC50 ([5]; resveratrol) is listed as 26.6 µM.
For `O=C1CC(c2ccc(O)cc2O)Oc2cc(O)cc(O)c21` (stereo not drawn) [Streppogenin], the IC50 ([5]; Fig. 1, flavanone) is given as 1.3 µM.
In the case of `Oc1ccc(/C=N/c2ccccc2O)c(O)c1` [compound B], the IC50 ([5]; most potent bibenzyl compound of Oozeki et al.) is listed as 0.37 µM.
For Chalcone, the IC50 ([5]; Fig. 1, chalcone) is given as 8.1 µM.
In the case of Phthalimide, the IC50 ([5]; Fig. 1, phthalimide) is given as 26.2 µM.
For Quinazoline, the IC50 ([5]; Fig. 1, quinazoline) is listed as 0.46 µM.
